Structures are written as SMILES.

For 13 molecules, Dmax results are on record in patent publication US20260042762A1 (Kymera Therapeutics, Inc., priority 2018, published 2026).

This test addresses T1, MerTK (Homo sapiens, UniProt Q12866).
T1 construct: endogenous in cells; host or cells: Jurkat cells
T1 sequence (Q12866 21-999): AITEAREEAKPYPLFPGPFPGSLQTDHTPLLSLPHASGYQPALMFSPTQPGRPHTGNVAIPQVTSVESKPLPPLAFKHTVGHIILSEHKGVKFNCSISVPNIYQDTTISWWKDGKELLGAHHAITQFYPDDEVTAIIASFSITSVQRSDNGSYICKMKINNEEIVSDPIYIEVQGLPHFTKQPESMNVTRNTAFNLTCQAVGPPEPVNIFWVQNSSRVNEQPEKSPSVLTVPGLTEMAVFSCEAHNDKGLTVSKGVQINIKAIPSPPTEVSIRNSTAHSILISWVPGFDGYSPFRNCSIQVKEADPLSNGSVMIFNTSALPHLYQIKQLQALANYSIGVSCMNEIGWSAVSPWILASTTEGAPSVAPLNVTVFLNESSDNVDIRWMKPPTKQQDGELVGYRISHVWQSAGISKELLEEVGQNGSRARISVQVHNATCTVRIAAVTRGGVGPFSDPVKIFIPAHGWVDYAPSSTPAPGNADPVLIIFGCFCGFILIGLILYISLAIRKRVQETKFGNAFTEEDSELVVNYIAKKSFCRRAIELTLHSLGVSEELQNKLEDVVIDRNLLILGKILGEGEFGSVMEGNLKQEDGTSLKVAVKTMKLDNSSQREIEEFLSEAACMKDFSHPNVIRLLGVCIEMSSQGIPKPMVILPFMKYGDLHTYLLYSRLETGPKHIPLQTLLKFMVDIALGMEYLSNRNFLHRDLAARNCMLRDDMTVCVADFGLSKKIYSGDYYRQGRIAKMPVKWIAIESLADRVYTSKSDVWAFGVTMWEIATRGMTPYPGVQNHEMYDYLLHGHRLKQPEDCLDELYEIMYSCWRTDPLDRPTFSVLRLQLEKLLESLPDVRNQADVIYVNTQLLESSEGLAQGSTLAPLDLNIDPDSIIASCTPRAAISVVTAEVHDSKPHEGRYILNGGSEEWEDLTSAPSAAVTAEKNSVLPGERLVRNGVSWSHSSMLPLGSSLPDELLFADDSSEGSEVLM
The experiment in a line: MerTk degradation in Jurkat cells (Western blot). Particulars: Jurkat, 4 h, 0.001-1 μM, 4 hour-incubation at 37° C., read-out: Jurkat Max % MerTK Degradation. It counts as cell-based. As to the method:
Compounds were reconstituted in DMSO to make 10 mM stock solutions. […] Cells were seeded into 6-well plates with about 5×10^6 cells per well. 2 μL of diluted compounds were added to cells to the final concentration of 0.001-1 μM. After a 4 hour-incubation at 37° C., cells were collected into 2 mL Eppendorf tubes and centrifuged at 1,000 rpm for 5 min. The cell pellets were washed with DPBS (1×) once and resuspended in 60 μL RIPA lysis buffer with Halt Protease and Phophatase Inhibitor Cocktail. The cells were lysed on ice for 10 min, then centrifuged at 14,000 rpm for 10 min at 4° C. and the supernatants were collected for western blots.
The protein concentration of cell lysates was quantified with Pierce™ BCA Protein Assay Kit. […] BCA working reagents were prepared by mixing BCA reagent A with reagent B in 50: 1 ratio. 200 μL of the BCA working reagents were added to 25 μL of BCA standard or cell lysates in microplate, and mixed thoroughly on a plate shaker for 30 seconds. After incubation at 37° C. for 30 min, the absorbance of samples at 562 nm were measured with EnVision Plate Reader.
Protein lysates were prepared in NuPAGE™ LDS sample buffer and NuPAGE™ sample reducing agent, and incubated at 95° C. for 5 min. […] The proteins were transferred to low fluorescence PVDF membranes using the Trans-Blot Turbo Transfer System. Membranes were then blocked in Odyssey blocking buffer at RT for 1 h followed by primary incubation at 4° C. overnight. The primary antibodies were MerTK rabbit monoclonal antibody and actin mouse monoclonal antibody. Membranes were washed three times with TBST (1×), and then incubated with IR Dye 800 CW Goat anti-rabbit and IR Dye 700 CW Goat anti-mouse secondary antibodies in 1:10,000 dilution at RT for 1 h. The Western blot images were obtained using Odyssey Imaging System.

For `CN1CCN(Cc2ccc(-c3ccc(CO[C@H]4CCC[C@@H]4NC(=O)c4cc(-c5cnn(CCCc6cccc7c6n(C)c(=O)n7C6CCC(=O)NC6=O)c5)cnc4N)cc3)cc2)CC1` (stereo partly drawn) [I-183, 2-Amino-5-(1-[3-[1-(2,6-dioxopiperidin-3-yl)-3-methyl-2-oxo-1,3-benzodiazol-4-yl]propyl]pyrazol-4-yl)-N-[(1S,2S)-2-([4-[(4-methylpiperazin-1-yl)methyl]-[1,1-biphenyl]-4-yl]methoxy)cyclopentyl]pyridine-3-carboxamide], the Dmax is less than 20%.

Regarding `COCC(C)Nc1ncc2c(-c3ccc(CN4CCN(CCCCCNCCN[C@H](C(=O)N5C[C@H](O)C[C@H]5C(=O)NCc5ccc(-c6scnc6C)cc5)C(C)(C)C)CC4)cc3)cn([C@H]3CC[C@H](O)CC3)c2n1` (stereo partly drawn) [I-3, (2S,4R)-4-Hydroxy-1-[(2S)-2-([2-[(5-[4-[(4-[2-[(1-methoxypropan-2-yl)amino]-7-(trans-4-hydroxycyclohexyl)-7H-pyrrolo[2,3-d]pyrimidin-5-yl]phenyl)methyl]piperazin-1-yl]pentyl)amino]ethyl]amino)-3,3-dimethylbutanoyl]-N-[[4-(4-methyl-1,3-thiazol-5-yl)phenyl]methyl]pyrrolidine-2-carboxamide], the Dmax is less than 20%.

`CCCCNc1ncc2c(-c3ccc(CN4CCN(CCOCCOCCOCCOCCCc5ccc6c(c5)n(C)c(=O)n6[C@H]5CCC(=O)NC5=O)CC4)cc3F)cn([C@H]3CC[C@H](O)CC3)c2n1` [I-58, 3-(5-[1-[4-([4-[2-(butylamino)-7-[trans-4-hydroxycyclohexy1]-7H-pyrrolo[2,3-d]pyrimidin-5-y1]-3-fluorophenyl]methyl)piperazin-1-y1]-3,6,9,12-tetraoxapentadecan-15-y1]-3-methyl-2-oxo-2,3-dihydro-1H-1,3-benzodiazol-1-yl)piperidine-2,6-dione]: the Dmax is more than 50%.

`Cc1ncsc1-c1ccc(CNC(=O)[C@@H]2C[C@@H](O)CN2C(=O)[C@@H](NC(=O)COCCOCCOCCOCCn2ccc3c(Nc4nc(N[C@@H]5CCCC[C@@H]5N)cc5nc[nH]c(=O)c45)cccc32)C(C)(C)C)cc1` [I-230]: the Dmax is less than 20%.

For the molecule `Cn1c(=O)n([C@H]2CCC(=O)NC2=O)c2ccc(CCCOCCCN3CCN(Cc4ccc(-c5cn(C6CCCCC6)c6nc(NCCC(F)(F)F)ncc56)cc4)CC3)cc21` [I-83, 3-[5-[3-(3-[4-[(4-[7-cyclohexyl-2-[(3,3,3-trifluoropropyl)amino]-7H-pyrrolo[2,3-d]pyrimidin-5-yl]phenyl)methyl]piperazin-1-yl]propoxy)propyl]-3-methyl-2-oxo-2,3-dihydro-1H-1,3-benzodiazol-1-yl]piperidine-2,6-dione;], the Dmax was more than 50%.

With `CN1CCN(Cc2ccc(-c3ccc(CO[C@H]4CCC[C@@H]4NC(=O)c4cc(-c5cnn(CCOCCOCCOCCCc6ccc7c(c6)n(C)c(=O)n7C6CCC(=O)NC6=O)c5)cnc4N)cc3)cc2)CC1` (stereo partly drawn) [I-203, 2-Amino-5-(1-[2-[2-(2-[3-[1-(2,6-dioxopiperidin-3-yl)-3-methyl-2-oxo-1,3-benzodiazol-5-yl]propoxy]ethoxy)ethoxy]ethyl]pyrazol-4-yl)-N-[(1S,2S)-2-([4-[(4-methylpiperazin-1-yl)methyl]-[1,1-biphenyl]-4-yl]methoxy)cyclopentyl]pyridine-3-carboxamide], the Dmax was in the range of 20 to 50%.

Consider `CCC[C@H](C)Nc1ncc2c(-c3ccc(CN4CCN(CCCOC5CN(Cc6ccc7c(c6)n(C)c(=O)n7C6CCC(=O)NC6=O)C5)CC4)cc3)cn([C@H]3CC[C@H](O)CC3)c2n1` (stereo partly drawn) [I-178, 3-(3-methyl-2-oxo-5-[[3-(3-[4-[(4-[2-[(2S)-pentan-2-ylamino]-7-[trans-4-hydroxycyclohexyl]pyrrolo[2,3-d]pyrimidin-5-yl]phenyl)methyl]piperazin-1-yl]propoxy)azetidin-1-yl]methyl]-1,3-benzodiazol-1-yl)piperidine-2,6-dione], for which the Dmax was more than 50%.

Take `Cn1c(=O)n([C@H]2CCC(=O)NC2=O)c2ccc(CCn3cc(CN4CCN(Cc5ccc(-c6cn([C@H]7CC[C@H](O)CC7)c7nc(NCCC(F)(F)F)ncc67)cc5)CC4)nn3)cc21` [I-114, 3-(3-methyl-2-oxo-5-[12-[4-([4-1(4-[17-[trans-4-hydroxycyclohexyl]-2-[(3,3,3-trifluoropropyl)aminol-7H-pyrrolo[2,3-d]pyrimidin-5-yl]phenyl)methyl]piperazin-1-yl]methyl)-1H-1,2,3-triazol-1-yl]ethyl]-2,3-dihydro-1H-1,3-benzodiazol-1-yl)piperidine-2,6-dione]: the Dmax is more than 50%.

For the molecule `Cn1c(=O)n([C@H]2CCC(=O)NC2=O)c2ccc(C#CCOCCN3CC(N4CCN(Cc5ccc(-c6cn([C@H]7CC[C@H](O)CC7)c7nc(NCCC(F)(F)F)ncc67)cc5)CC4)C3)cc21` [I-92, 3-(3-methyl-2-oxo-5-[3-[2-(3-[4-[(4-[7-[trans-4-hydroxycyclohexy1]-2-[(3,3,3-trifluoropropyl)amino]-7H-pyrrolo[2,3-d]pyrimidin-5-yl]phenyl)methyl]piperazin-1-yl]azetidin-1-yl)ethoxy]prop-1-yn-1-y1]-2,3-dihydro-1H-1,3-benzodiazol-1-y1)piperidine-2,6-dione; formic acid], the Dmax was more than 50%.

Take `CCCCNc1ncc2c(-c3ccc(S(=O)(=O)N4CCN(C(=O)COCCOCCOCCOCC(=O)N[C@H](C(=O)N5C[C@H](O)C[C@H]5C(=O)NCc5ccc(-c6scnc6C)cc5)C(C)(C)C)CC4)cc3)nn([C@H]3CC[C@H](O)CC3)c2n1` [I-31, (2S,4R)-1-((S)-2-(tert-butyl)-17-(4-((4-(6-(butylamino)-1-(trans-4-hydroxycyclohexyl)-1H-pyrazolo[3,4-d]pyrimidin-3-yl)phenyl)sulfonyl)piperazin-1-yl)-4,17-dioxo-6,9,12,15-tetraoxa-3-azaheptadecanoyl)-4-hydroxy-N-(4-(4-methylthiazol-5-yl)benzyl)pyrrolidine-2-carboxamide]: the Dmax lay in the range of 20 to 50%.

With `Cn1c(=O)n([C@H]2CCC(=O)NC2=O)c2ccc(COCCN3CCN(Cc4ccc(-c5cn([C@H]6CC[C@H](O)CC6)c6nc(NCCC(F)(F)F)ncc56)cc4)CC3)cc21` [I-151, trans-3-[3-methyl-2-oxo-5-[(2-[4-[(4-[7-[4-hydroxycyclohexy1]-2-[(3,3,3-trifluoropropyl)amino]pyrrolo[2,3-d]pyrimidin-5-y1]phenyl)methyl]piperazin-1-yl]ethoxy)methyl]-1,3-benzodiazol-1-yl]piperidine-2,6-dione; formic acid], the Dmax is more than 50%.

As to `CN1CCN(Cc2ccc(-c3ccc(CO[C@H]4CCC[C@@H]4NC(=O)c4cc(-c5cnn(CCOCCOCCOCCCc6cccc7c6n(C)c(=O)n7C6CCC(=O)NC6=O)c5)cnc4N)cc3)cc2)CC1` (stereo partly drawn) [I-204, 2-Amino-5-(1-[2-[2-(2-[3-[1-(2,6-dioxopiperidin-3-yl)-3-methyl-2-oxo-1,3-benzodiazol-4-yl]propoxy]ethoxy)ethoxy]ethyl]pyrazol-4-yl)-N-[(1S,2S)-2-([4-[(4-methylpiperazin-1-yl)methyl]-[1,1-biphenyl]-4-yl]methoxy)cyclopentyl]pyridine-3-carboxamide], the Dmax was in the range of 20 to 50%.

With `CCC[C@H](C)Nc1ncc2c(n1)n([C@H]1CC[C@H](O)CC1)cc2[C@H]1CC[C@@H](CN2CCN(CCCOC3CN(Cc4ccc5c(c4)n(C)c(=O)n5C4CCC(=O)NC4=O)C3)CC2)CC1` (stereo partly shown) [I-222], the Dmax was more than 50%.
